Assay results from US9028856B2, “Synergistic pesticide compositions” (priority 2008, dated 2015).

Tests used:
[1] = system: Argentine ant, Linepithema humile; experiment: Knockdown/mortality of ant workers under continuous exposure on treated glazed tile; details: Argentine ant, treated glazed tile
Experimental: (§1) Solutions of imidacloprid at 0.5% AI were prepared with and without methyl oleate @0.1, 1.0 and 5.0% in acetone. Treatments were applied using a micropipette to dispense 1 ml of test solution evenly on a 6″×6″ glazed tile. Actual coverage was about 5″×5″ (or 161 cm^2) for easy handling. Treatments were allowed to dry overnight. Ten Argentine ant workers were placed within a fluon or talc-coated PVC ring (φ7.6 cm×H 5.1 cm) under continuous exposure. A small vial filled with a cotton ball soaked in water was added as a drinking source after 3 hours. Treatments were replicated a minimum of three times. Evaluations for ant knockdown/mortality were made at various intervals and at 24 hours after exposure.
as §1, with “MATERIALS AND METHODS: Solutions” for “Solutions”, “linoleate” for “oleate”
as §1, with “MATERIALS AND METHODS: Solutions of” for “Solutions of”, “without methyl palmitate @0.1, 1.0” for “without methyl oleate @0.1, 1.0”, “after exposure. […]” for “after exposure.”

[2] = system: bait averse/resistant German cockroach (T-164 strain); experiment: Knockdown/mortality of male cockroaches under continuous exposure on treated glazed tile; format: in vivo, Blattella germanica; details: German cockroach T-164, treated glazed tile
Aedes aegypti mosquito [3] = experiment: USDA Petri Dish Method, 3 min exposure to dipped fiberglass window screen; format: in vivo; details: dipped screen, 3 min exposure
Experimental: MATERIALS AND METHODS: Aqueous solutions of 1% deltamethrin with and without an adjuvant composition, which is sold under the tradename Suspend® SC. […] Pre-cut fiberglass screen (5″×5″, or 161.3 cm^2) were dipped in each treatment solution and excessive solution was allowed to drain completely (see FIG. 23 a). Weight of the solution coated on the screen was then determined. The treated screen was then allowed to air-dry overnight. USDA Petri Dish Method was used as initial screening protocol (see FIG. 23 b). Twenty, 4-6 day old female Aedes aegypti were exposed to treated window screen for 3 minutes and then moved onto a clean untreated white paper index card. Treatments were replicated a minimum of three times. Mosquito knockdown was evaluated at 3 minute intervals for the first 15 minutes and then at 5 minute intervals for the remainder of an hour. A small cotton ball with sucrose solution was added on the screen top of the Petri dish as a drinking source. Mortality was evaluated at 24 hours after exposure.
MATERIALS AND METHODS: Several rates of permethrin without adjuvant were prepared using product sold under the tradename Permanone® 40 to determine an effective rate against Aedes aegypti mosquitoes. After determining an effective rate range, aqueous solutions of permethrin at 1.25, 1.0 and 0.05% AI were prepared with and without adjuvant. […] Pre-cut fiberglass screens (5″×5″ or 161.3 cm^2) were dipped in each treatment solution allowing excessive solution to drain completely. Weight of the solution coated on the screen was then determined. The treated screen was then allowed to air-dry overnight. USDA Petri Dish Method was used as initial screening protocol (see photo, right). Twenty, 4-6 day old female Aedes aegypti were exposed to treated window screen for 3 minutes and then moved to a clean untreated white paper index card. Treatments were replicated a minimum of three times. Mosquito knockdown was evaluated at 3 minute intervals for the first 15 minutes and then at 5 minute intervals for the remainder of an hour. A small cotton ball with sucrose solution was added on the screen top of the petri-dish as a drinking source. Mortality was evaluated at 24 hours after exposure.

Aedes aegypti mosquito [4] = experiment: USDA Petri Dish Method, 3 min exposure to treated glazed tile; format: in vivo; details: Aedes aegypti
Experimental: (§2) Treatments were allowed to dry overnight. USDA Petri Dish Method was used as initial screening protocol. Twenty, 4-6 day old female Aedes aegypti mosquitoes were exposed to each treatment for 3 minutes and then moved to a clean untreated white paper index card. Treatments were replicated a minimum of three times. Mosquito knockdown was evaluated at various intervals through 7 hours after exposure. A small cotton ball soaked in sucrose solution was added on the screen top of the petri-dish as a drinking source. Mortality was evaluated at 24 hours after exposure.
MATERIALS AND METHODS: Solutions of resmethrin at 1 and 0.5% AI were prepared with and without adjuvant in acetone. […] USDA Petri Dish Method was used as initial screening protocol. Twenty, 4-6 day old female Aedes aegypti mosquitoes were exposed to each treatment for 3 minutes and then moved to a clean untreated white paper index card. Treatments were replicated a minimum of three times. Mosquito knockdown was evaluated at 3 minute intervals for the first 15 minutes and then at 5 minute intervals for the remainder of an hour. A small cotton ball soaked in sucrose solution was added on the screen top of the petri-dish as a drinking source. Mortality was evaluated at 24 hours after exposure.
as §2, with “6” for “7”
as §2, with “5 minute” for “various”, “for the first hour and then at 2, 4 and 6 hours.” for “through 7 hours after exposure.”
Treatments were allowed to dry overnight. USDA Petri Dish Method was used as initial screening protocol. Twenty, 4-6 day old female Aedes aegypti mosquitoes were exposed to each treatment for 3 minutes and then moved to a clean untreated white paper index card. Treatments were replicated a minimum of three times. Mosquito knockdown was evaluated at 3-5 minute intervals for the first hour. A small cotton ball soaked in sucrose solution was then added on the screen top of the petri-dish as a drinking source. Mortality was evaluated at 24 hours after exposure.
as §2, with “intervals through 2 hours after” for “intervals through 7 hours after”, “solution was then added on” for “solution was added on”
Treatments were allowed to dry overnight. USDA Petri Dish Method was used as initial screening protocol. Twenty, 4-6 day old female Aedes aegypti mosquitoes were exposed to each treatment for 3 minutes and then moved to a clean untreated white paper index card. Treatments were replicated a minimum of three times. Mosquito knockdown was evaluated at various hourly intervals. […]

[5] = Table 39, permethrin without adjuvant (Permanone 40)
[6] = Table 56, glazed tile, 3 min exposure
[7] = Table 56, glazed tile, 3 min exposure, adjuvant = Compound A 1% + Compound B 0.5%
[8] = Table 40, aqueous permethrin/adjuvant

Row | SMILES | Average % Knockdown & Mortality after 3 min (Aedes aegypti mosquito [3]; [5]) [%] | Average % Knockdown & Mortality after 9 min (Aedes aegypti mosquito [3]; [5]) [%] | Average % Knockdown & Mortality after 15 min (Aedes aegypti mosquito [3]; [5]) [%] | Average % Knockdown & Mortality after 30 min (Aedes aegypti mosquito [3]; [5]) [%] | Average % Knockdown & Mortality after 60 min (Aedes aegypti mosquito [3]; [5]) [%] | Average % Knockdown & Mortality after 24 hr (Aedes aegypti mosquito [3]; [5]) [%] | also measured
1 | ClC(c1ccccc1)(c1ccccc1)c1ccccc1 [Tritylchloride, triphenyl methyl chloride (tritylchloride)] | – | – | – | – | – | – | toxicity / efficacy of the substance alone (summary in words) [1]: not toxic; toxicity / efficacy of the substance alone (summary in words) [2]: not toxic
2 | CC1(C)C(C=C(Cl)Cl)C1C(=O)OCc1cccc(Oc2ccccc2)c1 (centres unmarked) [Permethrin (1.75%)] | 40 | 95 | 100 | 100 | 100 | 100 | –
3 | CC1(C)C(C=C(Cl)Cl)C1C(=O)OCc1cccc(Oc2ccccc2)c1 (centres unmarked) [Permethrin (2.5%)] | 56 | 100 | 100 | 100 | 100 | 100 | –
4 | CC[S+]([O-])c1c(C#N)nn(-c2c(Cl)cc(C(F)(F)F)cc2Cl)c1N (centres unmarked) [Ethiprole (.01%)] | – | – | – | – | – | – | Average % Knockdown & Mortality after 4 hr (Aedes aegypti mosquito [4]; [6]): 2%; Average % Knockdown & Mortality after 6 hr (Aedes aegypti mosquito [4]; [6]): 12%; Average % Knockdown & Mortality after 24 hr (Aedes aegypti mosquito [4]; [6]): 17%; Average % Knockdown & Mortality after 2 hr (Aedes aegypti mosquito [4]; [7]): 0%
5 | CC1(C)C(C=C(Cl)Cl)C1C(=O)OCc1cccc(Oc2ccccc2)c1 (centres unmarked) [Permethrin (5%)] | 75 | 100 | 100 | 100 | 100 | 100 | –
6 | CC1(C)C(C=C(Cl)Cl)C1C(=O)OCc1cccc(Oc2ccccc2)c1 (centres unmarked) [Permethrin (0.1%)] | 0 | 0 | 0 | 0 | 0 | 5 | –
7 | CC1(C)C(C=C(Cl)Cl)C1C(=O)OCc1cccc(Oc2ccccc2)c1 (centres unmarked) [Permethrin (1.5%)] | 0 | 0 | 2 | 2 | 3 | 16 | –
8 | CC1(C)C(C=C(Cl)Cl)C1C(=O)OCc1cccc(Oc2ccccc2)c1 (centres unmarked) [Permethrin (1.25%)] | 46 | 71 | 71 | 72 | 79 | 82 | Average % Knockdown & Mortality after 3 min (Aedes aegypti mosquito [3]; [8]): 0%; Average % Knockdown & Mortality after 9 min (Aedes aegypti mosquito [3]; [8]): 0%; Average % Knockdown & Mortality after 15 min (Aedes aegypti mosquito [3]; [8]): 2%; Average % Knockdown & Mortality after 30 min (Aedes aegypti mosquito [3]; [8]): 2%; Average % Knockdown & Mortality after 60 min (Aedes aegypti mosquito [3]; [8]): 3%; Average % Knockdown & Mortality after 24 hr (Aedes aegypti mosquito [3]; [8]): 7%
9 | CC[S+]([O-])c1c(C#N)nn(-c2c(Cl)cc(C(F)(F)F)cc2Cl)c1N (centres unmarked) [Ethiprole (.1%)] | – | – | – | – | – | – | Average % Knockdown & Mortality after 4 hr (Aedes aegypti mosquito [4]; [6]): 3%; Average % Knockdown & Mortality after 6 hr (Aedes aegypti mosquito [4]; [6]): 15%; Average % Knockdown & Mortality after 24 hr (Aedes aegypti mosquito [4]; [6]): 25%; Average % Knockdown & Mortality after 2 hr (Aedes aegypti mosquito [4]; [7]): 3%
10 | CC1(C)C(C=C(Cl)Cl)C1C(=O)OCc1cccc(Oc2ccccc2)c1 (centres unmarked) [Permethrin (1.0%)] | 0 | 2 | 2 | 5 | 18 | 34 | Average % Knockdown & Mortality after 3 min (Aedes aegypti mosquito [3]; [8]): 2%; Average % Knockdown & Mortality after 9 min (Aedes aegypti mosquito [3]; [8]): 2%; Average % Knockdown & Mortality after 15 min (Aedes aegypti mosquito [3]; [8]): 2%; Average % Knockdown & Mortality after 30 min (Aedes aegypti mosquito [3]; [8]): 4%; Average % Knockdown & Mortality after 60 min (Aedes aegypti mosquito [3]; [8]): 13%; Average % Knockdown & Mortality after 24 hr (Aedes aegypti mosquito [3]; [8]): 28%
11 | CN/C(=N\[N+](=O)[O-])NCc1cnc(Cl)s1 [Clothianidin (1%)] | – | – | – | – | – | – | Average % Knockdown & Mortality after 1 hr (Aedes aegypti mosquito [4]; Table 78, clothianidin study, glazed tile, 3 min exposure, adjuvant = Compound A 1% + Compound B 0.5%, 1 hr): 0%; Average % Knockdown & Mortality after 2 hr (Aedes aegypti mosquito [4]; Table 78, clothianidin study): 0%; Average % Knockdown & Mortality after 4 hr (Aedes aegypti mosquito [4]; Table 78, clothianidin study): 0%; Average % Knockdown & Mortality after 24 hr (Aedes aegypti mosquito [4]; Table 78, clothianidin study): 0%
